PubChem BioAssay AID248 (DTP/NCI, 2004)
“And” between values parts separate entries of the source, which are not always exact repeats. Identical values can stand only once. Inconclusive results and toxic doses are left out.

System: L1210 leukemia ip in BDF1 mice, survival T/C
Experiment: NCI In Vivo Anticancer Drug Screen. Data for tumor model L1210 Leukemia (intraperitoneal) in B6D2F1 (BDF1) mice
Conditions: endpoint: mean survival time, higher = longer survival
Procedure, shortened: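 Value reflects the ratio of survival in compound-treated mice to survival in vehicle-treated controls, with both groups carrying the same transplanted tumor.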

[1] = dose: 100.0 mg/kg/injection, schedule: Q04DX003 (ip), vehicle: Klucel (hydroxypropylcellulose) (HPC)
[2] = dose: 200.0 mg/kg/injection, schedule: Q04DX003 (ip), vehicle: Klucel (hydroxypropylcellulose) (HPC)
[3] = dose: 400.0 mg/kg/injection, schedule: Q04DX003 (ip), vehicle: Klucel (hydroxypropylcellulose) (HPC)
[4] = dose: 100.0 mg/kg/injection, schedule: Q01DX001 (ip), vehicle: saline
[5] = dose: 200.0 mg/kg/injection, schedule: Q01DX001 (ip), vehicle: saline
[6] = dose: 400.0 mg/kg/injection, schedule: Q01DX001 (ip), vehicle: saline
[7] = dose: 25.0 mg/kg/injection, schedule: Q04DX003 (ip), vehicle: saline with Tween-80
[8] = dose: 50.0 mg/kg/injection, schedule: Q04DX003 (ip), vehicle: saline with Tween-80
[9] = dose: 100.0 mg/kg/injection, schedule: Q04DX003 (ip), vehicle: saline with Tween-80
[10] = dose: 100.0 mg/kg/injection, schedule: Q04DX002 (ip), vehicle: Klucel (hydroxypropylcellulose) (HPC)
[11] = dose: 200.0 mg/kg/injection, schedule: Q04DX002 (ip), vehicle: Klucel (hydroxypropylcellulose) (HPC)
[12] = dose: 50.0 mg/kg/injection, schedule: Q04DX002 (ip), vehicle: Klucel (hydroxypropylcellulose) (HPC)

ClC(Cl)(Cl)CC(Br)C(Br)CBr (stereo unspecified)
T/C (dose: 100.0 mg/kg/injection, schedule: Q01DX001 (ip), vehicle: acetone): 96 % of control | T/C (dose: 100.0 mg/kg/injection, schedule: Q01DX009 (ip), vehicle: acetone): 95 % of control | T/C (dose: 100.0 mg/kg/injection, schedule: Q04DX003 (ip), vehicle: acetone): 97 % of control | T/C (dose: 200.0 mg/kg/injection, schedule: Q01DX001 (ip), vehicle: acetone): 98 % of control | T/C (dose: 200.0 mg/kg/injection, schedule: Q04DX003 (ip), vehicle: acetone): 92 % of control | T/C (dose: 400.0 mg/kg/injection, schedule: Q01DX001 (ip), vehicle: acetone): 98 % of control | T/C (dose: 400.0 mg/kg/injection, schedule: Q04DX003 (ip), vehicle: acetone): 91 % of control

CCOc1cccc(Cc2c[nH]c(=O)n(C)c2=O)c1
T/C [1]: 93 % of control | T/C [2]: 97 % of control | T/C [3]: 98 % of control

CC12CC3(C)CC(C)(C1)CC(NC(=O)N(CCCl)N=O)(C2)C3
T/C (dose: 20.0 mg/kg/injection, schedule: Q01DX001 (ip), vehicle: other): 155 % of control | T/C (dose: 187.0 mg/kg/injection, schedule: Q01DX001 (ip), vehicle: other): 162 % of control | T/C (dose: 250.0 mg/kg/injection, schedule: Q01DX001 (ip), vehicle: other): 187 % of control | T/C (dose: 375.0 mg/kg/injection, schedule: Q01DX001 (ip), vehicle: other): 211 % of control | T/C (dose: 500.0 mg/kg/injection, schedule: Q01DX001 (ip), vehicle: other): 258 % of control | T/C (dose: 750.0 mg/kg/injection, schedule: Q01DX001 (ip), vehicle: other): 274 % of control

CCCCC(=O)c1ccc(C)cc1
T/C [4]: 102 % of control | T/C [5]: 98 % of control | T/C [6]: 96 % of control

CCCCOC(=O)/C(=C\c1cccc(OC)c1)NC(=O)c1ccccc1
T/C (dose: 50.0 mg/kg/injection, schedule: Q01DX009 (ip), vehicle: other): 92 % of control | T/C (dose: 100.0 mg/kg/injection, schedule: Q01DX009 (ip), vehicle: other): 89 % of control | T/C (dose: 200.0 mg/kg/injection, schedule: Q01DX009 (ip), vehicle: other): 100 % of control and 91 % of control | T/C (dose: 400.0 mg/kg/injection, schedule: Q01DX009 (ip), vehicle: other): 88 % of control

CC(=O)c1cc(C)[nH]c1C
T/C (dose: 100.0 mg/kg/injection, schedule: Q01DX009 (ip), vehicle: saline sonified): 100 % of control | T/C [1]: 89 % of control | T/C [2]: 106 % of control | T/C (dose: 400.0 mg/kg/injection, schedule: Q01DX009 (ip), vehicle: saline sonified): 89 % of control

O=C(Nc1ccc(C2=NCCN2)cc1)c1cccc(C(=O)Nc2ccc(C3=NCCN3)cc2)n1
T/C (dose: 15.0 mg/kg/injection, schedule: Q01DX Z (ip), vehicle: methylcellulose (MC)): 96 % of control | T/C (dose: 30.0 mg/kg/injection, schedule: Q01DX Z (ip), vehicle: methylcellulose (MC)): 93 % of control | T/C (dose: 60.0 mg/kg/injection, schedule: Q01DX Z (ip), vehicle: methylcellulose (MC)): 104 % of control and 111 % of control | T/C (dose: 240.0 mg/kg/injection, schedule: Q01DX Z (ip), vehicle: methylcellulose (MC)): 120 % of control | T/C (dose: 480.0 mg/kg/injection, schedule: Q01DX Z (ip), vehicle: methylcellulose (MC)): 95 % of control

Cc1cc[n+](CCCCCCCCCO)cc1
T/C [4]: 103 % of control

Clc1nc(Cl)n2c(Cl)cncc12
T/C [7]: 96 % of control | T/C [8]: 103 % of control | T/C [9]: 96 % of control

CC(C)OC(=O)Nc1ccc(Cl)cc1
T/C (dose: 100.0 mg/kg/injection, schedule: Q01DX009 (ip), vehicle: saline with Tween-80): 94 % of control | T/C (dose: 200.0 mg/kg/injection, schedule: Q01DX009 (ip), vehicle: saline with Tween-80): 97 % of control | T/C (dose: 400.0 mg/kg/injection, schedule: Q01DX009 (ip), vehicle: saline with Tween-80): 94 % of control

C1=CC2CC1CC2CNCCN1CC1 (stereo unspecified)
T/C (dose: 10.0 mg/kg/injection, schedule: Q04DX003 (ip), vehicle: saline): 106 % of control | T/C (dose: 20.0 mg/kg/injection, schedule: Q04DX003 (ip), vehicle: saline): 87 % of control

CCOC(=O)CNc1cc(Cl)cc(Cl)c1
T/C [10]: 100 % of control | T/C [11]: 96 % of control | T/C (dose: 400.0 mg/kg/injection, schedule: Q04DX002 (ip), vehicle: Klucel (hydroxypropylcellulose) (HPC)): 96 % of control

COc1ccc([N+](=O)[O-])cc1NC(=O)Oc1ccc(SC)cc1
T/C (dose: 50.0 mg/kg/injection, schedule: Q01DX009 (ip), vehicle: Klucel (hydroxypropylcellulose) (HPC)): 111 % of control | T/C (dose: 100.0 mg/kg/injection, schedule: Q01DX009 (ip), vehicle: Klucel (hydroxypropylcellulose) (HPC)): 92 % of control | T/C (dose: 200.0 mg/kg/injection, schedule: Q01DX009 (ip), vehicle: Klucel (hydroxypropylcellulose) (HPC)): 100 % of control

CCCN1CCCN(CCC)C1=O
T/C [12]: 102 % of control | T/C [10]: 102 % of control | T/C [11]: 93 % of control

COc1cc(C)c2oc(C)nc2c1
T/C (dose: 100.0 mg/kg/injection, schedule: Q01DX001 (ip), vehicle: Klucel (hydroxypropylcellulose) (HPC)): 92 % of control | T/C (dose: 400.0 mg/kg/injection, schedule: Q01DX001 (ip), vehicle: Klucel (hydroxypropylcellulose) (HPC)): 92 % of control

Nn1cnc2c(ncn2C2OC(CO)C(O)C2O)c1=O (stereo unspecified)
T/C (dose: 100.0 mg/kg/injection, schedule: Q01DX005 (ip), vehicle: saline): 88 % of control | T/C (dose: 200.0 mg/kg/injection, schedule: Q01DX005 (ip), vehicle: saline): 100 % of control

CC(C)(SCc1ccccc1)C(NC(=O)OCc1ccccc1)C(=O)O (stereo unspecified)
T/C (dose: 12.5 mg/kg/injection, schedule: Q01DX009 (ip), vehicle: DMSO): 92 % of control | T/C (dose: 25.0 mg/kg/injection, schedule: Q01DX009 (ip), vehicle: DMSO): 92 % of control | T/C (dose: 50.0 mg/kg/injection, schedule: Q01DX009 (ip), vehicle: DMSO): 88 % of control | T/C (dose: 100.0 mg/kg/injection, schedule: Q04DX002 (ip), vehicle: DMSO): 95 % of control | T/C (dose: 200.0 mg/kg/injection, schedule: Q04DX002 (ip), vehicle: DMSO): 97 % of control

CC(=N/NC(=O)c1ccc[n+](C)c1)/C(C)=N\NC(=O)c1ccc[n+](C)c1
T/C (dose: 25.0 mg/kg/injection, schedule: Q01DX001 (ip), vehicle: saline): 95 % of control | T/C (dose: 50.0 mg/kg/injection, schedule: Q01DX001 (ip), vehicle: saline): 95 % of control

Cc1ccc2c(n1)Nc1ncnc(N)c1S2
T/C (dose: 12.5 mg/kg/injection, schedule: Q04DX003 (ip), vehicle: Klucel (hydroxypropylcellulose) (HPC)): 96 % of control | T/C (dose: 25.0 mg/kg/injection, schedule: Q04DX003 (ip), vehicle: Klucel (hydroxypropylcellulose) (HPC)): 108 % of control

OCC(O)C(O)CO (stereo unspecified) (tested in a mixture with another compound)
T/C [12]: 104 % of control | T/C [10]: 95 % of control | T/C [11]: 98 % of control

CCOc1cccc2c1OC(COS(=O)(=O)c1ccc(C)cc1)CO2 (stereo unspecified)
T/C [4]: 95 % of control | T/C [5]: 95 % of control | T/C [6]: 95 % of control

CCC1(C)N=C(N)Nc2nc3ccccc3n21 (stereo unspecified)
T/C [4]: 96 % of control | T/C [5]: 94 % of control

CC(C)(C)CC(C)(C)NCc1ccccc1
T/C [7]: 103 % of control | T/C [8]: 92 % of control | T/C [9]: 103 % of control

O=C1CC2(CCCCC2)C(=O)N1Nc1ccccc1
T/C [1]: 105 % of control | T/C [2]: 98 % of control | T/C [3]: 102 % of control

CCOC(=O)CN(CC)CC(=O)OCC
T/C (dose: 75.0 mg/kg/injection, schedule: Q01DX009 (ip), vehicle: saline with Tween-80): 107 % of control | T/C [9]: 93 % of control | T/C (dose: 150.0 mg/kg/injection, schedule: Q01DX009 (ip), vehicle: saline with Tween-80): 107 % of control | T/C (dose: 200.0 mg/kg/injection, schedule: Q04DX003 (ip), vehicle: saline with Tween-80): 98 % of control | T/C (dose: 300.0 mg/kg/injection, schedule: Q01DX009 (ip), vehicle: saline with Tween-80): 109 % of control | T/C (dose: 400.0 mg/kg/injection, schedule: Q04DX003 (ip), vehicle: saline with Tween-80): 101 % of control

CN(/N=N/c1nc[nH]c1C(=O)N/N=C/c1ccc(N(CCCl)CCCl)cc1)C1CCCCC1
T/C (dose: 100.0 mg/kg/injection, schedule: Q01DX001 (ip), vehicle: other): 95 % of control | T/C (dose: 200.0 mg/kg/injection, schedule: Q01DX001 (ip), vehicle: other): 95 % of control | T/C (dose: 400.0 mg/kg/injection, schedule: Q01DX001 (ip), vehicle: other): 90 % of control
